In patent publication US12201656B2, “Selection of bacterial strains useful in allergy treatment” (BioGaia AB, priority 2016, dated 2025) one finds PKC phosphorylation data, which are given here for one compound.

In the assay the test system is phosphorylated PKC (pPKC). Briefly: Mouse enteroid experiment, pPKC Western blot. In kind it is cell-based. The conditions noted are these: DGK inhibitor 2 μM in the presence of wild-type L. reuteri PTA-6475 conditioned media, 45 min. The method, then:
FIGS. 5a and 5b illustrate that a commercially available DagK inhibitor (DGK inhi) prevents L. reuteri derived-DagK mediated protein kinase C (PKC) phosphorylation in mouse enteroids. FIG. 5a illustrates a Western blot analysis showing proteins isolated from mouse ileal enteroids of 10 week-old germ free (GF) male mice treated with only media control (LDM-4), WT Lr (WT Lr grown in LDM4), DagK inhibitor and DagK inhibitor with WT Lr for 45 min targeting mammalian phosphorylated PKC (pPKC). 10 μg proteins were loaded into each well of an SDS gel. The pPKC synthesis ratio was obtained by image-J analysis where pPKC of […] was set to 1 and used as baseline. FIG. 5b Mean values of n=3 showing pPKC protein concentration (loaded 10 μg) and quantified by densitometry using image-J. GF control groups were set to 1. *P<0.05, **P<0.01, ***P<0.001. n=10 mice per group. One-Way analysis of variance with Bonferroni correction.
Mouse enteroids (contains only intestinal epithelial layer) were derived from 10 week-old germ free (GF) BALB/c mouse. The enteroids were grown to form a monolayer and were induced with LDM4 media (control), wild-type L. reuteri PTA-6475 conditioned media (50 to 3 kDa cut off), diacylglycerol kinase (DGK) inhibitor (2 μM) only or DGK inhibitor (2 μM) with wild-type L. reuteri PTA-6475 conditioned media (CM; 50 to 3 kDa cut off). […]

Turning to `Cc1nc2sccn2c(=O)c1CCN1CCC(=C(c2ccccc2)c2ccc(F)cc2)CC1` [DGK inhibitor, 6-[2-(4-[(4-fluorophenyl)phenylmethylene]-1-piperidinyl)ethyl]-7-methyl-5H-thiazolo-[3,2-a]pyrimidine-5-one], the PKC phosphorylation entry is “increased PKC phosphorylation”.
